Patent US20080175794A1, “Substituted Pyridazinyl- and Pyrimidinyl-Quinolin-4-Ylamine Analogues” (NEUROGEN CORPORATION, priority 2005, published 2008)

Target: T1, human capsaicin receptor (Homo sapiens, UniProt Q8NER1)
T1 construct: expressed in transfected cells
Assay: Calcium mobilization assay, determination of antagonist activity (Example 6)
Type: cell-based
Conditions: Table III; assay provided in Example 6; cells expressing human capsaicin receptor, capsaicin at EC50
Procedure: A cDNA encoding full length human capsaicin receptor (SEQ ID NO:1, 2 or 3 of U.S. Pat. No. 6,482,611) is subcloned in the plasmid pBK-CMV (Stratagene, La Jolla, Calif.) for recombinant expression in mammalian cells.
Human embryonic kidney (HEK293) cells are transfected with the pBK-CMV expression construct encoding the full length human capsaicin receptor using standard methods. The transfected cells are selected over two weeks in media containing G418 (400 μg/ml) to obtain a pool of stably transfected cells. Independent clones are isolated from this pool by limiting dilution to obtain clonal stable cell lines for use in subsequent experiments.
Cells transfected with expression plasmids (as described in Example 4) and thereby expressing human capsaicin receptor are seeded and grown to 70-90% confluency in FALCON black-walled, clear-bottomed 96-well plates (#3904, BECTON-DICKINSON, Franklin Lakes, N.J.). The culture medium is emptied from the 96 well plates and FLUO-3 AM calcium sensitive dye (Molecular Probes, Eugene, Oreg.) is added to each well (dye solution: 1 mg FLUO-3 AM, 440 μL DMSO and 440 μl 20% pluronic acid in DMSO, diluted 1:250 in Krebs-Ringer HEPES (KRH) buffer (25 mM HEPES, […], 0.96 mM NaH2PO4, 1 mM MgSO4, 2 mM CaCl2, 5 mM glucose, 1 mM probenecid, pH 7.4), 50 μl diluted solution per well). Plates are covered with aluminum foil and incubated at 37° C. for 1-2 hours in an environment containing 5% CO2. After the incubation, the dye is emptied from the plates, and the cells are washed once with KRH buffer, and resuspended in KRH buffer.
To measure the ability of a test compound to agonize or antagonize a calcium mobilization response in cells expressing capsaicin receptors to capsaicin or other vanilloid agonist, the EC50 of the agonist capsaicin is first determined. An additional 20 μl of KRH buffer and 1 μl DMSO is added to each well of cells, prepared as described above. 100 μl capsaicin in KRH buffer is automatically transferred by the FLIPR instrument to each well. Capsaicin-induced calcium mobilization is monitored using either FLUOROSKAN ASCENT (Labsystems; Franklin, Mass.) or FLIPR (fluorometric imaging plate reader system; Molecular Devices, Sunnyvale, Calif.) instruments. Data obtained between 30 and 60 seconds after agonist application are used to generate an 8-point concentration response curve, with final capsaicin concentrations of 1 nM to 3 μM. KALEIDAGRAPH software (Synergy Software, Reading, Pa.) is used to fit the data to the equation: […]
Test compounds are dissolved in DMSO, diluted in 20 μl KRH buffer so that the final concentration of test compounds in the assay well is between […] and 5 μM, and added to cells prepared as described above. The 96 well plates containing prepared cells and test compounds are incubated in the dark at room temperature for 0.5 to 6 hours. It is important that the incubation not continue beyond 6 hours. Just prior to determining the fluorescence response, 100 μl capsaicin in KRH buffer at twice the EC50 concentration determined as described above is automatically added by the FLIPR instrument to each well of the 96 well plate for a final sample volume of 200 μl and a final capsaicin concentration equal to the EC50. The final concentration of test compounds in the assay wells is between 1 μM and 5 μM. […] The concentration of antagonist required to provide a 50% decrease, relative to the response observed in the presence of capsaicin and without antagonist, is the IC50 for the antagonist, and is preferably below 1 micromolar, 100 nanomolar, 10 nanomolar or 1 nanomolar.

T1 sequence (Q8NER1 whole entry): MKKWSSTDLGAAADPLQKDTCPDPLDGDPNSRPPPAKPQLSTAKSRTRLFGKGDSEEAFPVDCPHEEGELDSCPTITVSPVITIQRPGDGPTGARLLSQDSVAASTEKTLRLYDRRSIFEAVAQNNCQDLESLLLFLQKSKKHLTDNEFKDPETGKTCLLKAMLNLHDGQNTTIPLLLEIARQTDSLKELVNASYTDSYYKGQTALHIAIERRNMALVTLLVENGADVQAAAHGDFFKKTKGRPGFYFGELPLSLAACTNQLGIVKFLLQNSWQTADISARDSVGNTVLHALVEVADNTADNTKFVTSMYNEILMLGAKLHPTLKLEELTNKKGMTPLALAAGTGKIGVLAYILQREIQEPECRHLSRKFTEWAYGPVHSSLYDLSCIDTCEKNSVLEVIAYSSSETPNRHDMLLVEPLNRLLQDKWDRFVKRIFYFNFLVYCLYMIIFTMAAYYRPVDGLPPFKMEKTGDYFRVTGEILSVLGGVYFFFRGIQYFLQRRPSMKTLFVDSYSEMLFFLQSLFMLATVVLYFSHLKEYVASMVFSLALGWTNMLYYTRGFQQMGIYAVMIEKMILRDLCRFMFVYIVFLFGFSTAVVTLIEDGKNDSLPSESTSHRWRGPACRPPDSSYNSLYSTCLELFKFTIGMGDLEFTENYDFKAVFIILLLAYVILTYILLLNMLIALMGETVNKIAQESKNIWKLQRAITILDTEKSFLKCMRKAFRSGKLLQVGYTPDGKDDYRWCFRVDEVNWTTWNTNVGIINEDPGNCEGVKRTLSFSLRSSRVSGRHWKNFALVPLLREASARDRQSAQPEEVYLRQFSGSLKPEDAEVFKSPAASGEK

IC50, < 1 µM:
CN(C)CCCNc1cc(C(F)(F)F)c(-c2cnc3c(Nc4ccc(C(F)(F)F)cn4)ccnc3n2)nn1 [Compound 139, N,N-dimethyl-N′-[5-(trifluoromethyl)-6-(8-{[5-(trifluoromethyl)pyridin-2-yl]amino}pyrido[2,3-b]pyrazin-3-yl)pyridazin-3-yl]propane-1,3-diamine]
CNC(=O)CN(C)c1cc(C(F)(F)F)c(-c2cnc3c(Nc4ccc(C(F)(F)F)cn4)ccnc3n2)nn1 [Compound 58, N,N2-dimethyl-N2-[5-(trifluoromethyl)-6-(8-{[5-(trifluoromethyl)pyridin-2-yl]amino}pyrido[2,3-b]pyrazin-3-yl)pyridazin-3-yl]glycinamide]
C=CCN1CCN(c2cc(C(F)(F)F)c(-c3cnc4c(Nc5ccc(C(F)(F)F)cn5)ccnc4n3)nn2)CC1 [Compound 86, 3-[6-(4-allylpiperazin-1-yl)-4-(trifluoromethyl)pyridazin-3-yl]-N-[5-(trifluoromethyl)pyridin-2-yl]pyrido[2,3-b]pyrazin-8-amine]
CN(C)CCNc1cc(C(F)(F)F)c(-c2cnc3c(Nc4ccc(C(F)(F)F)cn4)ccnc3n2)nn1 [Compound 69, N,N-dimethyl-N′-[5-(trifluoromethyl)-6-(8-{[5-(trifluoromethyl)pyridin-2-yl]amino}pyrido[2,3-b]pyrazin-3-yl)pyridazin-3-yl]ethane-1,2-diamine]
C=CCNc1cc(C(F)(F)F)c(-c2cnc3c(Nc4ccc(C(F)(F)F)cn4)ccnc3n2)nn1 [Compound 152, 3-[6-(allylamino)-4-(trifluoromethyl)pyridazin-3-yl]-N-[5-(trifluoromethyl)pyridin-2-yl]pyrido[2,3-b]pyrazin-8-amine]
CCN(CC)c1cc(C(F)(F)F)c(-c2cnc3c(Nc4ccc(C(F)(F)F)cn4)ccnc3n2)nn1 [Compound 126, 3-[6-(diethylamino)-4-(trifluoromethyl)pyridazin-3-yl]-N-[5-(trifluoromethyl)pyridin-2-yl]pyrido[2,3-b]pyrazin-8-amine]
FC(F)(F)c1ccc(Nc2ccnc3nc(-c4nnc(N5CCCCCC5)cc4C(F)(F)F)cnc23)nc1 [Compound 178, 3-[6-azepan-1-yl-4-(trifluoromethyl)pyridazin-3-yl]-N-[5-(trifluoromethyl)pyridin-2-yl]pyrido[2,3-b]pyrazin-8-amine]
FC(F)(F)c1ccc(Nc2ccnc3nc(-c4nnc(NCC5CC5)cc4C(F)(F)F)cnc23)nc1 [Compound 103, 3-{6-[(cyclopropylmethyl)amino]-4-(trifluoromethyl)pyridazin-3-yl}-N-[5-(trifluoromethyl)pyridin-2-yl]pyrido[2,3-b]pyrazin-8-amine]
CCN(CCN(C)C)c1cc(C(F)(F)F)c(-c2cnc3c(Nc4ccc(C(F)(F)F)cn4)ccnc3n2)nn1 [Compound 94, N-ethyl-N′,N′-dimethyl-N-[5-(trifluoromethyl)-6-(8-{[5-(trifluoromethyl)pyridin-2-yl]amino}pyrido[2,3-b]pyrazin-3-yl)pyridazin-3-yl]ethane-1,2-diamine]
CC(C)N(C)c1cc(C(F)(F)F)c(-c2cnc3c(Nc4ccc(C(F)(F)F)cn4)ccnc3n2)nn1 [Compound 185, 3-{6-[isopropyl(methyl)amino]-4-(trifluoromethyl)pyridazin-3-yl}-N-[5-(trifluoromethyl)pyridin-2-yl]pyrido[2,3-b]pyrazin-8-amine]
CCC(COC)Nc1cc(C(F)(F)F)c(-c2cnc3c(Nc4ccc(C(F)(F)F)cn4)ccnc3n2)nn1 (stereo not drawn) [Compound 166, 3-[6-{[1-(methoxymethyl)propyl]amino}-4-(trifluoromethyl)pyridazin-3-yl]-N-[5-(trifluoromethyl)pyridin-2-yl]pyrido[2,3-b]pyrazin-8-amine]
COCCNc1cc(C(F)(F)F)c(-c2cnc3c(Nc4ccc(C(F)(F)F)cn4)ccnc3n2)nn1 [Compound 163, 3-{6-[(2-methoxyethyl)amino]-4-(trifluoromethyl)pyridazin-3-yl}-N-[5-(trifluoromethyl)pyridin-2-yl]pyrido[2,3-b]pyrazin-8-amine]
OCCCCCNc1cc(C(F)(F)F)c(-c2cnc3c(Nc4ccc(C(F)(F)F)cn4)ccnc3n2)nn1 [Compound 115, 5-{[5-(trifluoromethyl)-6-(8-{[5-(trifluoromethyl)pyridin-2-yl]amino}pyrido[2,3-b]pyrazin-3-yl)pyridazin-3-yl]amino}pentan-1-ol]
OC1CCN(c2cc(C(F)(F)F)c(-c3cnc4c(Nc5ccc(C(F)(F)F)cn5)ccnc4n3)nn2)CC1 [Compound 196, 1-[5-(trifluoromethyl)-6-(8-{[5-(trifluoromethyl)pyridin-2-yl]amino}pyrido[2,3-b]pyrazin-3-yl)pyridazin-3-yl]piperidin-4-ol]
CN1CCC(N(C)c2cc(C(F)(F)F)c(-c3cnc4c(Nc5ccc(C(F)(F)F)cn5)ccnc4n3)nn2)C1 (stereo not drawn) [Compound 97, 3-{6-[methyl(1-methylpyrrolidin-3-yl)amino]-4-(trifluoromethyl)pyridazin-3-yl}-N-[5-(trifluoromethyl)pyridin-2-yl]pyrido[2,3-b]pyrazin-8-amine]
CN(CCOCCO)c1cc(C(F)(F)F)c(-c2cnc3c(Nc4ccc(C(F)(F)F)cn4)ccnc3n2)nn1 [Compound 67, 2-(2-{methyl[5-(trifluoromethyl)-6-(8-{[5-(trifluoromethyl)pyridin-2-yl]amino}pyrido[2,3-b]pyrazin-3-yl)pyridazin-3-yl]amino}ethoxy)ethanol]
CN(C)c1cc(C(F)(F)F)c(-c2cnc3c(Nc4ccc(C(F)(F)F)cn4)ccnc3n2)nn1 [Compound 54, 3-[6-(dimethylamino)-4-(trifluoromethyl)pyridazin-3-yl]-N-[5-(trifluoromethyl)pyridin-2-yl]pyrido[2,3-b]pyrazin-8-amine]
OCCOc1cc(C(F)(F)F)c(-c2cnc3c(Nc4ccc(C(F)(F)F)cn4)ccnc3n2)nn1 [Compound 63, 2-{[5-(trifluoromethyl)-6-(8-{[5-(trifluoromethyl)pyridin-2-yl]amino}pyrido[2,3-b]pyrazin-3-yl)pyridazin-3-yl]oxy}ethanol]
COCC(C)Nc1cc(C(F)(F)F)c(-c2cnc3c(Nc4ccc(C(F)(F)F)cn4)ccnc3n2)nn1 (stereo not drawn) [Compound 165, 3-{6-[(2-methoxy-1-methylethyl)amino]-4-(trifluoromethyl)pyridazin-3-yl}-N-[5-(trifluoromethyl)pyridin-2-yl]pyrido[2,3-b]pyrazin-8-amine]
FC(F)(F)c1ccc(Nc2ccnc3nc(-c4nnc(NCc5cccnc5)cc4C(F)(F)F)cnc23)nc1 [Compound 78, 3-{6-[(pyridin-3-ylmethyl)amino]-4-(trifluoromethyl)pyridazin-3-yl}-N-[5-(trifluoromethyl)pyridin-2-yl]pyrido[2,3-b]pyrazin-8-amine]

Same assay, conditions: assay provided in Example 6; cells expressing human capsaicin receptor, capsaicin at EC50

IC50, < 1 µM:
FC(F)(F)c1ccc(Nc2ccnc3nc(-c4nnccc4C(F)(F)F)ccc23)nc1 [Compound 1, N-[5-(Trifluoromethyl)pyridin-2-yl]-7-[4-(trifluoromethyl)pyridazin-3-yl]-1,8-naphthyridin-4-amine]
